In paper PMC10515382, “Aminochalcones Attenuate Neuronal Cell Death under Oxidative Damage via Sirtuin 1 Activity” (ACS Omega, 2023):

Assays:
[1] = tested on: H2O2-induced SH-SY5Y cells; experiment: Cell viability in H2O2-induced SH-SY5Y cells (MTT assay); assay type: cell-based, human; conditions: 5 μM pretreatment 3 h, then 400 μM H2O2 24 h; for protective effect on cell viability: vs nonpretreated group
Protocol: Cell viability was evaluated using the MTT assay. […] Cells were pretreated for 3 h with aminochalcones or resveratrol at various concentrations ranging from 0 to 100 μM before being incubated with 400 μM H2O2 (Sigma-Aldrich, Cat. no. 31642) for 24 h. Cells treated only with culture media, DMEM with 10% FBS, were used as the control. Each well received 5 mg/mL of MTT solution at the end of the incubation time, and the samples were then incubated at 37 °C in the dark for 2–4 h. Following the removal of the solution, 0.04 N HCl in isopropyl alcohol was added to dissolve the formazan crystals. A microplate reader programed to read at 570 nm was used to detect the MTT formazan product. The absorbance of formazan is directly proportional to the number of viable cells. The viability of the cells was expressed in percentages compared with the viability of the control group.[23]

[2] = tested on: H2O2-induced SH-SY5Y cells; experiment: Cell morphology observation in H2O2-induced SH-SY5Y cells; assay type: cell-based, human; conditions: 5 μM pretreatment 3 h, then 400 μM H2O2 24 h
Protocol: After adhering, the cells were treated with aminochalcones for 3 h. The culture media was refreshed, followed by an additional 24 h of exposure to 400 μM H2O2.

[3] = Cytotoxicity assay (MTT) against MRC-5 cells; assay type: cell-based; conditions: human, MRC-5 cells (normal embryonic lung cell line), read-out: Cytotoxic activity (IC50)
Protocol: MRC-5 cells were grown in DMEM supplemented with 100 U/mL penicillin–streptomycin and 10% FBS. Briefly, the cells suspended in the corresponding culture medium were inoculated in 96-well microtiter plates (Corning Inc., NY, USA) at 10,000–20,000 cells per well and then incubated at 37 °C under a humidified atmosphere with 5% CO2 for 24 h. An equal volume of additional medium containing serial dilutions of test compounds, positive control (doxorubicin), or negative control (DMSO) was added to the desired final concentrations. Microtiter plates were further incubated for 48 h. The cell viability in each well was determined by staining with the MTT assay reagent (Molecular Probes, Cat. no. M6494).[75]–[77] MTT solution ([…]) was added to all wells of the assay, and the plates were incubated for 2–4 h. Subsequently, DMSO was added to dissolve the resulting formazan by sonication. The plates were read on a microplate reader (Molecular Devices, USA) using a test wavelength of 550 nm and a reference wavelength of 650 nm. The IC50 value was determined as the concentration of compound that inhibited the cell growth by 50%.

[4] = tested on: H2O2-induced SH-SY5Y cells; experiment: LDH assay of cell membrane damage in H2O2-induced SH-SY5Y cells; assay type: cell-based, human; conditions: 5 μM pretreatment, vs H2O2 alone
Protocol: LDH leakage into the culture medium of aminochalcones with or without H2O2-treated cells was assessed by using an LDH assay kit to determine the neuroprotective effect of aminochalcones against H2O2-induced cell damage. To prepare samples for the LDH test, 2 mL of SH-SY5Y cells at 1.0 × 10^5 cells/mL concentration was added and incubated overnight in 6-well plates at 37 °C. Then, each well was pretreated for 3 h with 5 μM aminochalcones or resveratrol before exposure to 400 μM H2O2 for another 24 h. Subsequently, the LDH assay kit (Cat. no. MAK066) from Sigma-Aldrich (St. Louis, MO, USA) was used to measure the LDH activity, following the manufacturer’s instructions. The assay relies on the conversion of lactate to pyruvate by the enzyme lactate dehydrogenase and further produces NADH as a product, giving rise to an increase in absorbance at 450 nm.

[5] = tested on: H2O2-induced SH-SY5Y cells; experiment: Mitochondrial membrane potential (Rhodamine-123) in H2O2-induced SH-SY5Y cells; assay type: cell-based, human; conditions: 5 μM pretreatment, vs H2O2 alone
Protocol: Mitochondrial-specific fluorescent dye, Rhodamine-123 (Sigma-Aldrich, Cat. no. R8004), was used to determine the MMP. The reduction in the fluorescence signal correlated with the decrease in MMP, which referred to a decrease in the mitochondrial function. SH-SY5Y cells (200 μL) at 1.0 × 10^5 cells/mL were plated onto the 96-well plate and incubated overnight at 37 °C. Then, each well was pretreated for 3 h with 5 μM aminochalcones or resveratrol before being challenged with 400 μM H2O2 for further 24 h. Cells were then exposed to Rhodamine-123 at a final concentration of 10 μM in the culture media and incubated at 37 °C for 30 min under dark conditions. At the end of incubation, cells were washed twice with PBS to remove the excess dye. MMP levels were then measured with a microplate reader at excitation and emission wavelengths of 488 and 525 nm, respectively. The MMP of the cells was expressed as percentages compared with the control group.[80]

[6] = tested on: H2O2-induced SH-SY5Y cells; experiment: Intracellular ROS production (DCFDA) in H2O2-induced SH-SY5Y cells; assay type: cell-based, human; conditions: for effect on intracellular ROS production: 5 μM pretreatment, vs H2O2 alone
Protocol: Green fluorescent DCF was generated by the oxidation of nonfluorescent carboxy-DCFDA, which is caused by intracellular ROS. SH-SY5Y cells (200 μL) at 1.0 × 10^5 cells/mL were seeded and incubated overnight in 96-well plates at 37 °C. Then, each well was pretreated for 3 h with 5 μM aminochalcones or resveratrol before exposure to 400 μM H2O2 for an additional 24 h. Subsequently, carboxy-H2DCFDA was introduced to the to a final concentration of 10 μM in the culture media and incubated at 37 °C for 30 min under dark conditions. Intracellular ROS production was instantly evaluated using a microplate reader at an emission wavelength of 528 nm and an excitation wavelength of 485 nm. The intracellular ROS production of the cells was expressed as percentages compared with the control group.[79]

SH-SY5Y cells = experiment: SH-SY5Y cell viability, compounds alone (MTT assay); assay type: cell-based, human; conditions: compounds alone at 10 μM, no H2O2
Protocol: Cell viability was evaluated using the MTT assay. Briefly, 96-well plates were seeded with SH-SY5Y cells at a density of 1 × 10^5 cells/mL and allowed to attach. Cells were pretreated for 3 h with aminochalcones or resveratrol at various concentrations ranging from 0 to 100 μM before being incubated with 400 μM H2O2 (Sigma-Aldrich, Cat. no. 31642) for 24 h. Cells treated only with culture media, DMEM with 10% FBS, were used as the control. Each well received 5 mg/mL of MTT solution at the end of the incubation time, and the samples were then incubated at 37 °C in the dark for 2–4 h. Following the removal of the solution, 0.04 N HCl in isopropyl alcohol was added to dissolve the formazan crystals. A microplate reader programed to read at 570 nm was used to detect the MTT formazan product. The absorbance of formazan is directly proportional to the number of viable cells. The viability of the cells was expressed in percentages compared with the viability of the control group.[23]

SMILES	protective effect on cell viability [1]	effect on cell morphology [2]	IC50 at 48 h [3]	effect on cell membrane damage [4]	effect on mitochondrial function [5]	effect on intracellular ROS production [6]	effect on cell viability, compounds alone (SH-SY5Y cells)	melting point	viability at 5 µM ([1]; Homo sapiens, SH-SY5Y, read-out: cell viability (percentage relative to control))	activity at 5 µM ([6]; Homo sapiens, SH-SY5Y, 5 μM pretreatment 3 h, then 400 μM H2O2 24 h, H2O2 alone 135.54%, read-out: intracellular ROS production (fluorescence intensity, % of control))
COc1ccc(/C=C/C(=O)c2ccc(N)cc2)c(OC)c1OC [Compound 2, (E)-1-(4-Aminophenyl)-3-(2,3,4-trimethoxyphenyl)prop-2-en-1-one]	significantly improved the cell viability	prevented morphological aberration	99.3 ± 4.15 µM	reduced cell membrane damage	prevented mitochondrial dysfunction	reduced intracellular ROS production				
COc1cc(/C=C/C(=O)c2ccc(N)cc2)cc(OC)c1OC [Compound 3, (E)-1-(4-Aminophenyl)-3-(3,4,5-trimethoxyphenyl)prop-2-en-1-one]	significantly improved the cell viability	prevented morphological aberration	70.3 ± 3.78 µM	reduced cell membrane damage	prevented mitochondrial dysfunction	reduced intracellular ROS production	hazardous to the treated cells			
COc1ccc(/C=C/C(=O)c2ccc(N)cc2)cc1O [Compound 4, (E)-1-(4-Aminophenyl)-3-(3-hydroxy-4-methoxyphenyl)prop-2-en-1-one]	low protective potential		115.3 ± 1.05 µM				hazardous to the treated cells	187 to 189 °C		
COc1cccc(/C=C/C(=O)c2ccc(N)cc2)c1 [Compound 5, (E)-1-(4-Aminophenyl)-3-(3-methoxyphenyl)prop-2-en-1-one]	significantly improved the cell viability	prevented morphological aberration	116 ± 8.08 µM	reduced cell membrane damage	prevented mitochondrial dysfunction	reduced intracellular ROS production				
COc1cccc2c1C(=O)c1c(O)c3c(c(O)c1C2=O)C[C@@](O)(C(=O)CO)C[C@@H]3O[C@H]1C[C@H](N)[C@H](O)[C@H](C)O1 [doxorubicin, reference compound]			3.03 ± 0.09 µM							
Oc1ccc(/C=C/c2cc(O)cc(O)c2)cc1 [resveratrol, reference compound]		morphological alterations were reduced							85%	123 ± 2%
